This is an account of results in patent US7592366B2, “Therapeutic compounds” (Allergan, Inc., priority 2006, dated 2009).

One test concerns the target EP2 (Homo sapiens, UniProt P43116). In words: cAMP assay, EP2. It counts as cell-based. As to conditions: HEK-EBNA cells expressing EP2. Set-up: expressed in transfected cells; host or cells: HEK-EBNA. On the procedure: A 384-well drug plate was prepared to contain 6 test compounds, PGE2 and cAMP in 16 serial dilutions in triplicate, using a Biomek station. HEK-EBNA cells expressing a target PG receptor subtype (EP2 or EP4) were suspended in a stimulation buffer (HBSS, 0.1% BSA, 0.5 mM IBMX and 5 mM HEPES, pH 7.4) in a density of 10^4 cells/5 μl. The reaction was initiated by mixing 5 μL drug dilutions with 5 μl of HEK-EBNA cells in a well, carried out for 30 min at room temperature, and followed by the addition of 5 μl anti-cAMP acceptor beads in the control buffer with Tween-20 (25 mM NaCl, 0.03% Tween-20, 5 mM HEPES, pH7.4). After 30 min in the dark at room temperature, the mixtures were incubated with 15 μl biotinylated-cAMP/strepavidin donor beads in Lysis/Detection buffer (0.1% BSA, 0.3% Tween-20 and 5 mM HEPES, pH7.4) for 45 min at the room temperature. Fluorescence changes were read using a Fusion-alpha HT microplate reader.
For orientation: cAMP levels reflect the balance of adenylyl cyclase and phosphodiesterase activity.

The target of another test is T1, EP4 receptors (Homo sapiens, UniProt P35408).
T1 construct: expressed in transfected cells; host or cells: HEK-293
In words: Radioligand binding [3H]PGE2, EP4 Ki. Conditions: [3H]PGE2 competition, HEK-293 cells expressing EP4. As to the method:
HEK-293 cells stably expressing the human or feline FP receptor, or EP1, EP2, or EP4 receptors were washed with TME buffer, scraped from the bottom of the flasks, and homogenized for 30 sec using a Brinkman PT 10/35 polytron. TME buffer was added to achieve a final 40 ml volume in the centrifuge tubes (the composition of TME is 100 mM TRIS base, 20 mM MgCl2, […]; 10N HCl is added to achieve a pH of 7.4).
The cell homogenate was centrifuged at 19000 r.p.m. for 20 min at 4° C. using a Beckman Ti-60 rotor. The resultant pellet was resuspended in TME buffer to give a final 1 mg/ml protein concentration, as determined by Biorad assay. Radioligand binding competition assays vs. [^3H-]17-phenyl PGF2α (5 nM) were performed in a 100 μl volume for 60 min. Binding reactions were started by adding plasma membrane fraction. The reaction was terminated by the addition of 4 ml ice-cold TRIS-HCl buffer and rapid filtration through glass fiber GF/B filters using a Brandel cell harvester. The filters were washed 3 times with ice-cold buffer and oven dried for one hour.
[^3H-] PGE2 (specific activity 180 Ci mmol) was used as the radioligand for EP receptors. [^3H] 17-phenyl PGF2α was employed for FP receptor binding studies. Binding studies employing EP1, EP2, EP4 and FP receptors were performed in duplicate in at least three separate experiments. A 200 μl assay volume was used. Incubations were for 60 min at 25° C. and were terminated by the addition of 4 ml of ice-cold 50 mM TRIS-HCl, followed by rapid filtration through Whatman GF/B filters and three additional 4 ml washes in a cell harvester (Brandel). Competition studies were performed using a final concentration of 5 nM [^3H]-PGE2, or 5 nM [^3H] 17-phenyl PGF2α and non-specific binding determined with 10^−5M of unlabeled PGE2, or 17-phenyl PGF2α, according to receptor subtype studied.

A further test has as its target T2, hEP3A/Gqi5 (Homo sapiens, UniProt P43115).
T2 construct: expressed in transfected cells; host or cells: HEK-293(EBNA)
T2 sequence (P43115 1-390): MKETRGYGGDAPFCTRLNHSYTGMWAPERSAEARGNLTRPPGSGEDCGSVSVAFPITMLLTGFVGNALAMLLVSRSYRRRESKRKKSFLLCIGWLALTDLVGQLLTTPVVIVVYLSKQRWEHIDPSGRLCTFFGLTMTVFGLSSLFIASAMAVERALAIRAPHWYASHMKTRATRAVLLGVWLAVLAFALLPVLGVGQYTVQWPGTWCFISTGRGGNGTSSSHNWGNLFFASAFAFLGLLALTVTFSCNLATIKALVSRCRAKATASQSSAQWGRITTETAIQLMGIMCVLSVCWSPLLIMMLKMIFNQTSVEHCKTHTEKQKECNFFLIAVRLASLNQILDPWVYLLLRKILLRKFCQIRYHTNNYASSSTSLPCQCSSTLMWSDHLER
In words: FLIPR calcium signal, hEP3A. The format is cell-based. Conditions: read-out: Other Receptors (EC50 in nM) hEP3A. As to the method: HEK-293(EBNA) cells, stably expressing one type or subtype of recombinant human prostaglandin receptors (prostaglandin receptors expressed: hDP/Gqs5; hEP1; hEP2/Gqs5; hEP3A/Gqi5; hEP4/Gqs5; hFP; hIP; hTP), were cultured in 100 mm culture dishes in high-glucose DMEM medium containing 10% fetal bovine serum, 2 mM l-glutamine, 250 μg/ml geneticin (G418) and 200 μg/ml hygromycin B as selection markers, and 100 units/ml penicillin G, 100 μg/ml streptomycin and 0.25 μg/ml amphotericin B.
Cells were seeded at a density of 5×10^4 cells per well in Biocoat® Poly-D-lysine-coated black-wall, clear-bottom 96-well plates (Becton-Dickinson) and allowed to attach overnight in an incubator at 37° C. Cells were then washed two times with HBSS-HEPES buffer (Hanks Balanced Salt Solution without bicarbonate and phenol red, 20 mM HEPES, pH 7.4) using a Denley Cellwash plate washer (Labsystems). […]
Cells were excited with an Argon laser at 488 nm, and emission was measured through a 510-570 nm bandwidth emission filter (FLIPR™, Molecular Devices, Sunnyvale, Calif.). […] The peak increase in fluorescence intensity was recorded for each well. […] The peak fluorescence change in each drug-containing well was then expressed relative to the controls. […]

SMILES strings stand for the structures.

EP2, sequence (P43116 whole entry): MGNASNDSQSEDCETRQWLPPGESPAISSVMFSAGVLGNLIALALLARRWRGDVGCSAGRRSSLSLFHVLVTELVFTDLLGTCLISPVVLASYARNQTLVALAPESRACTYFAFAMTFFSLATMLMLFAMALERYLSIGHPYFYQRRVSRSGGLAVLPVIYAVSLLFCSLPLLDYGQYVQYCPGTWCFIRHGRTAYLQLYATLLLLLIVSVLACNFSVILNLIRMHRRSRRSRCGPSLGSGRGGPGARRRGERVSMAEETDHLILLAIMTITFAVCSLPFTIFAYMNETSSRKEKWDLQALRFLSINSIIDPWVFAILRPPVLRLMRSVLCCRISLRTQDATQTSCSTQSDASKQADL
T1 sequence (P35408 whole entry): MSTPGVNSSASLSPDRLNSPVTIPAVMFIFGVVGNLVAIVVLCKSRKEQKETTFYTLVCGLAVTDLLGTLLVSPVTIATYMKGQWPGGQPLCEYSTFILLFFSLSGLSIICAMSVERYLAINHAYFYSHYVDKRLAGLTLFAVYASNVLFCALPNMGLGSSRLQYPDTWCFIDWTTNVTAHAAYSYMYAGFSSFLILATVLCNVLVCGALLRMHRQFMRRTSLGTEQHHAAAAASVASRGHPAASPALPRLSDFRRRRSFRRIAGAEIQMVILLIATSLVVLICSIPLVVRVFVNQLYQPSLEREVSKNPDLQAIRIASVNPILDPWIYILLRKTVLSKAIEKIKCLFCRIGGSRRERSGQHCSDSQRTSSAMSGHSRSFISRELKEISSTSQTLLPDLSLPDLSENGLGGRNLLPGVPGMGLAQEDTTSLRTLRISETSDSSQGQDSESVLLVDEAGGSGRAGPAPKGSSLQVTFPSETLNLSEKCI

As a reminder, the EC50 is the midpoint of the concentration-response curve. The Ki is the equilibrium dissociation constant of an inhibitor or competing ligand from its target. Low values mean higher affinity, high ones lower affinity. Turning to `O=C(O)c1ccc(CCC[C@@H]2[C@@H](CCc3cc(F)cc(F)c3)[C@H](O)C[C@H]2Cl)s1` [11d, 5-(3-((1R,2R,3R,5R)-5-chloro-2-(3,5-difluorophenethyl)-3-hydroxycyclopentyl)propyl)thiophene-2-carboxylic acid], the EC50 at EP2 stood at 0.1 nM; at hEP3A/Gqi5, 8540 nM. At EP4 receptors, the Ki stood at 2570 nM.
For `O=C(O)c1ccc(CCC[C@@H]2[C@@H](CCc3cc(Cl)cc(Cl)c3)[C@@H](O)C[C@H]2Cl)s1` [compound 17, 5-(3-((1R,2R,3S,5R)-5-chloro-2-(3,5-dichlorophenethyl)-3-hydroxycyclopenty)propyl)thiophene-2-carboxylic acid] the same measures were 4 nM, over 10000 nM and over 10000 nM.
